Holding throughout (assay): microscale thermophoresis
What all share (type): binding

The target in test [1] is T1, SbXXT (Sb2G401600) (Sorghum bicolor, UniProt C5X460, Y462F).
T1 sequence (C5X460 93-554 Y462F): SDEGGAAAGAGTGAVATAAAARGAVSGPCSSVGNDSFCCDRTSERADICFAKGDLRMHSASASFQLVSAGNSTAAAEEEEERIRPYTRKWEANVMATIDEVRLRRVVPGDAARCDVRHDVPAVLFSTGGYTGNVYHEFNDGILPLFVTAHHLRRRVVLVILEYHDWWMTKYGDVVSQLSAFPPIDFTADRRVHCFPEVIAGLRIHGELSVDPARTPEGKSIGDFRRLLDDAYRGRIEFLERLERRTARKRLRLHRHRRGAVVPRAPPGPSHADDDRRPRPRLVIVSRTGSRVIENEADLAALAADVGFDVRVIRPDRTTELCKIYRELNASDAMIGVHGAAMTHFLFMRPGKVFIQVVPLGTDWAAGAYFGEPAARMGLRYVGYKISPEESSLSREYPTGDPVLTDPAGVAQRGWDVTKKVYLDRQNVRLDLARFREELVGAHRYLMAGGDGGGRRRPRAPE

Test [2] concerns the target T2, SbXXT (Sb2G401600) (Sorghum bicolor, UniProt C5X460).
T2 sequence (C5X460 93-554): T1 sequence (C5X460 93-554 Y462F) with F370Y

Test [3] addresses SbXAT (Sb3G094600) (Sorghum bicolor, UniProt A0A1B6Q2C2, F596Y).
Test [4] concerns the target SbXAT (Sb3G094600) (Sorghum bicolor, UniProt A0A1B6Q2C2).

Molecules are shown by their SMILES. Positions count from the first letter of the chain named.

Chain of SbXAT (Sb3G094600) (Sorghum bicolor, UniProt A0A1B6Q2C2) (A0A1B6Q2C2 198-685): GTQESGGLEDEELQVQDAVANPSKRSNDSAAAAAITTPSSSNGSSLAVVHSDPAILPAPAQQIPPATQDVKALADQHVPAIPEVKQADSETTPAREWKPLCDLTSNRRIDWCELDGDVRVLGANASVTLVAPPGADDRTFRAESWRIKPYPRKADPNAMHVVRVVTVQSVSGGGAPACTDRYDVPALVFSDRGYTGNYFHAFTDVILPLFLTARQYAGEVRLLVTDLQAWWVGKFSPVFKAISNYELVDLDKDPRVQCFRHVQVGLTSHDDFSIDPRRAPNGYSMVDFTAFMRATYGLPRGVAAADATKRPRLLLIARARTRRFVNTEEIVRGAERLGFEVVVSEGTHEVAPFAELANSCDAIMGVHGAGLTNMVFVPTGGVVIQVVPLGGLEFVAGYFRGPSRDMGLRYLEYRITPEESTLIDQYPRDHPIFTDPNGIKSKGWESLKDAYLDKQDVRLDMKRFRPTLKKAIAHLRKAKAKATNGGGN
Chain of SbXAT (Sb3G094600) (Sorghum bicolor, UniProt A0A1B6Q2C2, F596Y) (A0A1B6Q2C2 198-685 F596Y): as the sequence (A0A1B6Q2C2 198-685) above, with F399Y counted along it

Regarding `O=c1ccn([C@@H]2O[C@H](COP(=O)(O)OP(=O)(O)O[C@H]3OC[C@@H](O)[C@H](O)[C@H]3O)[C@@H](O)[C@H]2O)c(=O)[nH]1` [UDP-Xyl], the Kd in test [1] came to 15 µM; in test [2] it was 13 µM; in test [3], 221 µM; in test [4], 373 µM.
On the same counts, the results for `O=c1ccn([C@@H]2O[C@H](COP(=O)(O)OP(=O)(O)O[C@H]3O[C@@H](CO)[C@H](O)[C@H]3O)[C@@H](O)[C@H]2O)c(=O)[nH]1` [UDP-Araf] are 19 µM, 26 µM, 531 µM and 244 µM.

What is called Kd is the constant that tells how readily two partners part at equilibrium. A higher Kd goes with a looser complex.
